Results published in paper PMC10692723 (The Journal of Biological Chemistry, 2023).
Ends that are not written are not given here. * marks the point of attachment. FITC = O=C1OC2(c3ccc(O)cc3Oc3cc(O)ccc32)c2ccc(NC(=S)*)cc21

B1: FITC-conjugated CD44 peptide (SRRRCGQKKKLVINSGNGAVEDYK-FITC) (peptide)
peptide: SRRRCGQKKKLVINSGNGAVEDYK(FITC)

Tests used:
MSN–CD44 interaction = MSN–CD44 interaction (Homo sapiens, UniProt P26038); assay: MSN–CD44 TR-FRET assay; format: binding; conditions: for increase in potency relative to compound 2: MSN–CD44 TR-FRET
MSN–CD44 interaction, sequence (P26038 1-345): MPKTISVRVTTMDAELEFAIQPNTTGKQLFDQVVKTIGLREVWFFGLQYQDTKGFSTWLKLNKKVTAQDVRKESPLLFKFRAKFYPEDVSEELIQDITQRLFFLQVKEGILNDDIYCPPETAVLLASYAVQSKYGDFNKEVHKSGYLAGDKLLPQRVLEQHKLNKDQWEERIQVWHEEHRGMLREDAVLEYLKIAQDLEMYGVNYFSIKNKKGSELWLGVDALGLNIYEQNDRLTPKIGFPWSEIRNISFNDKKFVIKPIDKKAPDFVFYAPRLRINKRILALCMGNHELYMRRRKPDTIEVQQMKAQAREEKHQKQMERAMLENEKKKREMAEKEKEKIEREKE

[1] = target: GST-MSN and Venus-Flag-CD44 (Homo sapiens, UniProt P26038); assay: GST pull-down assay in cell lysates; format: binding; conditions: full-length GST-MSN and Flag-CD44
GST-MSN and Venus-Flag-CD44, sequence (P26038 whole entry): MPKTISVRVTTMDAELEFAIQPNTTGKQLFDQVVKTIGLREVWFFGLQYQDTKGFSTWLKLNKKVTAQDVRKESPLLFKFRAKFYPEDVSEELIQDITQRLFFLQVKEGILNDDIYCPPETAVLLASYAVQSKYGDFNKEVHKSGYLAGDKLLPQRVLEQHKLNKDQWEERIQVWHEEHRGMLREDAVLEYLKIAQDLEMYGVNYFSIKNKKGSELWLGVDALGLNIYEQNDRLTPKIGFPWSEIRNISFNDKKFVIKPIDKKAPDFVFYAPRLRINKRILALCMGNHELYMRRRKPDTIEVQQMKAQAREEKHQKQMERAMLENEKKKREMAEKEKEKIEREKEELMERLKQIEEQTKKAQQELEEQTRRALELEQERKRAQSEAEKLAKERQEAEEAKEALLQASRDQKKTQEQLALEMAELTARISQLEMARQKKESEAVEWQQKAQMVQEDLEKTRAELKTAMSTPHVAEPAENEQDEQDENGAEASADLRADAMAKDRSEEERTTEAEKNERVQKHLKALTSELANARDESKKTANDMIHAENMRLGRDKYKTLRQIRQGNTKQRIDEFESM

[2] = Solubility by nephelometry; conditions: aqueous / PBS buffer
[3] = target: T1, 6His-tagged MSN FERM domain (residues 1-345), wild type (human, UniProt P26038 1-345); assay: FRET or BRET
[4] = target: T1, 6His-tagged MSN FERM domain (residues …); assay: FRET or BRET; remark: listed apart in the source
[5] = target: MSN FERM domain (residues 1-345), wild type, 6His tag cleaved (human, UniProt P26038 1-345); assay: FRET or BRET
[6] = target: T1, 6His-tagged MSN FERM domain (residues …); assay: FRET or BRET; remark: listed apart in the source
[7] = target: B1; assay: FRET or BRET

Row | Molecule | h (hill slope) of MSN–CD44 TR-FRET dose response (MSN–CD44 interaction) | effect on MSN–CD44 interaction in GST pull-down assay [1] | solubility [2] | also measured
1 | Nc1ccc(C(=O)Nc2ccc(-c3nc4ccc(NC(=O)c5ccc(N)cc5)cc4s3)cc2)cc1.O=C(O)C(F)(F)F.O=C(O)C(F)(F)F [Compound 1, 4-amino-N-(4-(6-(4-aminobenzamido)benzo[d]thiazol-2-yl)phenyl)benzamide bis(2,2,2-trifluoroacetate)] | 1.7 | induce the dissociation of CD44 from MSN |  | 
2 | COc1ccccc1C(=O)Nc1ccc(-c2nc3ccccc3[nH]2)cc1 [Compound 2, N-(4-(1H-benzo[d]imidazol-2-yl)phenyl)-2-methoxybenzamide] | 15.8 | induce the dissociation of CD44 from MSN | low solubility | 
3 | COc1ccc(C(=O)Nc2ccc(-c3nc4ccccc4[nH]3)cc2)c(OC)c1 [Compound 2a, N-(4-(1H-benzo[d]imidazol-2-yl)phenyl)-2,4-dimethoxybenzamide] | 2.4 | able to inhibit the MSN–CD44 interaction | improved solubility | increase in potency relative to compound 2 (MSN–CD44 interaction): approximately 2 fold
4 | O=C(Nc1ccc(-c2nc3ccccc3[nH]2)cc1)c1cccc(Cl)c1 [Compound 2b, N-(4-(1H-benzo[d]imidazol-2-yl)phenyl)-3-chlorobenzamide] | 2.3 | able to inhibit the MSN–CD44 interaction | improved solubility | increase in potency relative to compound 2 (MSN–CD44 interaction): approximately 2 fold
5 | EDGGSSWEYIWTLPSG [C3S1-pd peptide] |  |  |  | EC50 [3]: ~130 nM; IC50 [4]: ~220 nM
6 | B1 |  |  |  | binding result [5]: binds; binding result [6]: binds
7 | MSN FERM domain (1-345) H288A, untagged (domain or fragment) MPKTISVRVTTMDAELEFAIQPNTTGKQLFDQVVKTIGLREVWFFGLQYQDTKGFSTWLKLNKKVTAQDVRKESPLLFKFRAKFYPEDVSEELIQDITQRLFFLQVKEGILNDDIYCPPETAVLLASYAVQSKYGDFNKEVHKSGYLAGDKLLPQRVLEQHKLNKDQWEERIQVWHEEHRGMLREDAVLEYLKIAQDLEMYGVNYFSIKNKKGSELWLGVDALGLNIYEQNDRLTPKIGFPWSEIRNISFNDKKFVIKPIDKKAPDFVFYAPRLRINKRILALCMGNAELYMRRRKPDTIEVQQMKAQAREEKHQKQMERAMLENEKKKREMAEKEKEKIEREKE |  |  |  | fold higher concentration needed to inhibit, against WT MSN [7]: 10 fold
8 | MSN FERM domain (1-345) L281R, untagged (domain or fragment) MPKTISVRVTTMDAELEFAIQPNTTGKQLFDQVVKTIGLREVWFFGLQYQDTKGFSTWLKLNKKVTAQDVRKESPLLFKFRAKFYPEDVSEELIQDITQRLFFLQVKEGILNDDIYCPPETAVLLASYAVQSKYGDFNKEVHKSGYLAGDKLLPQRVLEQHKLNKDQWEERIQVWHEEHRGMLREDAVLEYLKIAQDLEMYGVNYFSIKNKKGSELWLGVDALGLNIYEQNDRLTPKIGFPWSEIRNISFNDKKFVIKPIDKKAPDFVFYAPRLRINKRIRALCMGNHELYMRRRKPDTIEVQQMKAQAREEKHQKQMERAMLENEKKKREMAEKEKEKIEREKE |  |  |  | fold higher concentration needed to inhibit, against WT MSN [7]: 10 fold
